Measurements as given in patent EP4371976B1, “IONIZABLE LIPIDS AND LIPID NANOPARTICLES CONTAINING THEREOF” (Certest Biotec, S.L., priority 2022, dated 2024).

Columns and labels:
[1] = tested on: Female BALB/c mice; experiment: Firefly luciferase expression (total flux, IVIS imaging) in mice after injection of mRNA-loaded LNPs; format: in vivo; details: for protein expression in mice (transfection results): Figure 1 legend, LNPs containing RNA; for Total Flux: Table 8, mice, intramuscular, 5 µg luciferase mRNA in 50 µl, LNP 50:10:38.5:1.5
Description: For in vivo administration, mRNA comprising in the 5' to 3' direction a sequence encoding for luciferase of SEQ ID NO:1, was encapsulated into LNPs following the procedure described in Hassett, K. J. et al., "Optimization of Lipid Nanoparticles for Intramuscular Administration of mRNA Vaccines", 2019, Mol. Ther. Nucleic Acid, vol. 15, pp. 1-11. Briefly, the purified mRNAs were first diluted in sodium citrate buffer at pH=4 at a final concentration of 266 µg/ml. Separately, a mixture of the ionizable lipid of the invention:DSPC (Merk 850365P):cholesterol (Sigma C3045):DMG-PEG2000 (Cayman 33945-1) were dissolved into ethanol at the respective molar percentages of 50:10:38.5:1.5, and with a lipid-nitrogen-to-phosphate ratio (N:P) ratio of 5,5:1.
The mRNA aqueous solution was then carefully added to the ethanol solution, and the resulted solution was homogenized by pipetting up and down for 4-5 times. The resulting LNPs were immediately diluted 1:1 with Tris buffer and dialyzed overnight against Tris buffer containing 15% sucrose. The resulting LNP solution was then collected, and the encapsulated mRNA was assessed by Quant-IT® Ribogreen (Invitrogen R11490) following the manufacturer's instructions.
Female BALB/c mice (Charles River Laboratories), 8-10-week-old, weighting 18-23 g, were acclimatized to new conditions upon arrival to experimental facilities for 3-7 days. Housing conditions were room temperature 20-24 °C, humidity 50-70 %, and light intensity 60 lux with a light-dark cycle of 12 hours.
For Firefly Luciferase activity measurement in mice, LNPs produced as indicated above (ionizable lipid:helper lipid: sterol:PEG-modified lipid → 50:10:38.5:1.5) and containing 5 µg of the indicated mRNA in 50 µl final volume, were injected intramuscularly.
From 4 to 72 hours after RNA-LPN inoculation mice were anaesthetized by inhalation with 4% of isoflurane using a vaporizer. The maintenance of the anaesthesia was performed at 1.5% of isoflurane. Then, D-luciferin (Quimigen, 12507) was injected intraperitoneally at 150 mg/kg, normally ~200 µL of the stock at 15 mg/mL in PBS for a 20 g mouse. Luciferase images were acquired 10 minutes after luciferin inoculation using the IVIS Lumina XRMS Imaging System following manufacturer's instructions.

[2] = Size distribution, polydispersity and Z-potential of LNPs by dynamic light scattering (Malvern Zetasizer); format: physicochemical; details: LNPs, standard formulation 50:10:38.5:1.5; DLS
Description: The LNP solution was then adjusted to a final concentration of mRNA of 100 µg/ml. Size distribution, polydispersity and Z-potential were measured by dynamic light scattering (DLS) using Malvern Zetasizer Advance Lab Blue Label. RNA encapsulation was assessed by Quant-IT® Ribogreen following the manufacturer's instructions.

[3] = RNA encapsulation efficiency of LNPs by Quant-IT Ribogreen; format: physicochemical; details: for Encaps. efficiency (%): LNPs with luciferase mRNA, ionizable lipid:non-cationic lipid:sterol:PEG-modified lipid 50:10:38.5:1.5, percentage of RNA entrapped in the LNP; for Encaps. efficiency: Table 8, LNP 50:10:38.5:1.5, luciferase mRNA
Method in brief: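 Ribogreen dye assay per manufacturer quantified encapsulated mRNA. Particles were made by adding mRNA in water to the ethanol phase, then 1:1 Tris dilution and overnight dialysis into Tris/15% sucrose; final mRNA set to 100 µg/ml.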

SMILES | protein expression in mice (transfection results) [1] | Total Flux [1] [p·s^-1] | P.D.I. [2] | Particle size/ Ø (nm) [2] [nm] | Z Potential (± D.E.) [mV] [2] [mV] | Encaps. efficiency (%) [3] [%] | Encaps. efficiency [3] [%]
CCCCCCCC/C=C\CCCCCCCC(=O)NC(CCSCCC(=O)OCC(CCCCCCCCCC)CCCCCCCCCCCC)C(=O)NCCCN1CCOCC1 (stereo not drawn) [VC-LC-0353] | good transfection results | 5.2E+07 | 0.1 | 175.8 | -8.97 | 57.26 | 57.26
CCCCCCCCCCCCCCCCCCOC(=O)CCSCCC(NC(=O)C(CCCCCC)CCCCCCCC)C(=O)NCCCn1ccnc1 (stereo not drawn) [VC-LC-0262] | – | 7.5E+07 | 0.11 | 143.8 | -10.53 | 33.79 | 33.79
CCCCCCCC/C=C\CCCCCCCCOC(=O)CCSCCC(NC(=O)CCCCCCC/C=C\CCCCCCCC)C(=O)NCCCN1CCOCC1 (stereo not drawn) [VC-LC-0355] | good transfection results | 2.39E+07 | 0.3 | 242.2 | -4.71 | 81.58 | 81.6
CCCCCCCCCCCCCCCCOC(=O)CCSCC(CC(=O)NCCCN1CCOCC1)C(=O)OC(CCCCCCCC)CCCCCCCC (stereo not drawn) [VC-LC-0547] | – | 1.1E+08 | 0.18 | 168 | -13.52 | 31.52 | 31.52
CCCCCCCCCCCCCCOC(=O)CCSCCC(C(=O)NCCCn1ccnc1)C(=O)OC(CCCCCCCC)CCCCCCCC (stereo not drawn) [VC-LC-0367] | – | 3.16E+07 | 0.19 | 134.6 | -15.48 | 47.47 | 47.5
CCCCCCCCC(CCCCCCCC)OC(=O)C(CSCCC(=O)OCCCCCC(C)C)CC(=O)NCCCN1CCOCC1 (stereo not drawn) [VC-LC-0548] | – | 1.2E+08 | 0.17 | 145.5 | -8.82 | 30.22 | 30.22
CCCCCCCCCCCCCCCCCCOC(=O)CCSCC(CC(=O)NCCCN1CCOCC1)C(=O)OC(CCCCCCCC)CCCCCCCC (stereo not drawn) [VC-LC-0546] | – | 2.54E+07 | 0.14 | 164.2 | -10.43 | 39.62 | 39.6
CCCCCCCCCCCCC(CCCCCCCCCC)COC(=O)CCSCC(CC(=O)NCCCN1CCOCC1)C(=O)OC(CCCCCCCC)CCCCCCCC (stereo not drawn) [VC-LC-0553] | good transfection results | – | 0.22 | 196.2 | -8.66 | 36.11 | –
CCCCCCCCCCCCCCCCCCOC(=O)CCSCCC(NC(=O)C(CCCCCC)CCCCCCCC)C(=O)NC1CCN(C)CC1 (stereo not drawn) [VC-LC-0215] | – | 4.23E+07 | – | 143.5 | -13.70 | 58.34 | 58.3
CCCCCCCCCCCCC(CCCCCCCCCC)COC(=O)CCSCCC(NC(=O)C(CCCCCC)CCCCCCCC)C(=O)NCCN(CC)CC (stereo not drawn) [VC-LC-0487] | – | 6.9E+07 | 0.17 | 156.3 | -9.59 | 62.43 | 62.43
CCCCCCCCC(CCCCCCCC)OC(=O)C(CSCCC(=O)OCCCCCC(C)C)CC(=O)NCCCn1ccnc1 (stereo not drawn) [VC-LC-0302] | – | 7.9E+07 | 0.13 | 112.3 | -9.30 | 40.58 | 40.6
CCCCCCCCCCCCCCCCCCCCCCOC(=O)CCSCC(CC(=O)NCCCN1CCOCC1)C(=O)OC(CCCCCCCC)CCCCCCCC (stereo not drawn) [VC-LC-0549] | – | 2.5E+07 | 0.27 | 194.9 | -16.95 | 36.38 | 36.38
CCCCCCCC/C=C\CCCCCCCC(=O)NC(CCSCCC(=O)OCC(CCCCCCCCCC)CCCCCCCCCCCC)C(=O)NC1CCN(C)CC1 (stereo not drawn) [VC-LC-0356] | – | 3.83E+07 | 0.09 | 218.9 | -10.96 | 68.27 | 68.3
CCCCCCCCCCCCCOC(=O)CCSCCC(NC(=O)C(CCCCCCCC)CCCCCCCCCC)C(=O)NCC1CCN(C)CC1 (stereo not drawn) [VC-LC-0507] | – | 2.29E+07 | 0.13 | 151.1 | -2.76 | 95.15 | 95.2
CCCCCCCCCCCCCOC(=O)CCSCC(CC(=O)NCCCN1CCOCC1)C(=O)OC(CCCCCCCC)CCCCCCCC (stereo not drawn) [VC-LC-0540] | – | 1.3E+08 | 0.11 | 140.3 | -8.47 | 43.65 | 43.65
CCCCCCCCCCCCCCCCCC(=O)NC(CCSCCC(=O)OCCCCCCCCCCCCC)C(=O)NCCCN1CCOCC1 (stereo not drawn) [VC-LC-0374] | good transfection results | – | 0.16 | 174.7 | -9.62 | 70.37 | –
CCCCCCCCCCCCC(CCCCCCCCCC)COC(=O)CCSCCC(NC(=O)C(CCCCCCCC)CCCCCCCCCC)C(=O)NCC1CCN(C)CC1 (stereo not drawn) [VC-LC-0521] | – | 1.1E+08 | 0.071 | 153.1 | -4.50 | 52.01 | 52.01
CCCCCCCC/C=C\CCCCCCCC(=O)NC(CCSCCC(=O)OCCCCCCCCCCCCC)C(=O)NCCCN(CCO)CCO (stereo not drawn) [VC-LC-0289] | good transfection results | 2.329E+07 | 0.2 | 207.1 | -0.34 | 89.26 | 89.3
